# Article PMC12238723, “Phase I Clinical Trial of CVL218, a Novel PARP1/2 Inhibitor, in Patients with Advanced Solid Tumors” (MedComm, 2025)
# Test system: patients with advanced solid tumors
# Assay: Treatment-related adverse events (CTCAE v5.0), phase I dose escalation
# Type: in vivo
# Text: This study was a single‐arm, dose‐escalation phase I trial conducted in Sun Yat‐sen University Cancer Center in China. This study assessed CVL218 in patients with histologically or cytologically confirmed advanced solid tumors who were in PD after standard therapeutic regimens or lacked standard treatment options. Inclusion criteria included: age 18–75 years; with at least one measurable and evaluable target lesion per Response Evaluation Criteria in Solid Tumors 1.1 (RECIST 1.1); ECOG performance status of 0 or 1; adequate hematological, renal, cardiac, and hepatic functions and a life expectancy ≥12 weeks. Key exclusion criteria included prior usage of PARP inhibitors; allergic to the research drug or its components; with active, unstable systemic diseases or active, uncontrolled infection; a history of other malignancies within 5 years, and pregnant or lactating women.
# CVL218 was administered orally, and this dose‐escalation trial included nine dose levels: 100 mg QD (50 mg BID), 200 mg QD (100 mg BID), 400 mg QD (200 mg BID), 700 mg QD (350 mg BID), 1000 mg QD (500 mg BID), 1200 mg QD (600 mg BID), 1400 mg QD (700 mg BID), 1700 mg QD (850 mg BID), and 2000 mg QD (1000 mg BID). Patients enrolled in the study received a single oral dose on the first day, followed by continuous multiple dosing (twice a day taking 12 h apart) after 72 h, with the treatment cycle lasting 4 weeks. The period during which patients received a single dose is designated as cycle 0 (C0), lasting 72 h. After this period, patients begin multiple dosing, referred to as cycle 1 (C1). An initial accelerated titration design was employed for the three lowest dose groups, and the “3+3” design was applied starting with the 300 mg BID cohort.
# The primary objectives were to assess safety and tolerability as well as to determine the MTD, DLT, and dose recommended for further study. DLT was defined as any of the following events occurring during cycle 0 (including 72 h wash‐out period after a single dose) and cycle 1 per Common Terminology Criteria for Adverse Events (CTCAE) version 5.0: grade 4 anemia; grade 4 neutropenia; grade 3 neutropenia with fever ≥38.5°C; grade 4 thrombocytopenia; grade 3 thrombocytopenia associated with bleeding; grade ≥2 neurotoxicity; any other grade ≥3 nonhematological toxicities (excluding alopecia). The secondary objectives were to assess the PK and preliminary efficacy of CVL218.
# Subjects who received at least one dose of CVL218 with postadministration safety records were included in safety analysis set. Subjects who received at least one dose of CVL218 with at least one evaluable PK parameter were included in PK analysis set. Per‐protocol set were used for efficacy analysis. Descriptive statistics of safety were presented per CTCAE v5.0. The PK parameters T max and T 1/2 were shown as the median (min, max) and mean ± SD, respectively. A two‐sided p < 0.05 was considered to indicate statistical significance. Statistical analysis was performed by using GraphPad prism 8.0.2 and R‐4.3.3.
structure (smiles),measurement,setting,value
CNCc1ccc(-c2cc3cc(F)cc(C(N)=O)c3o2)cc1.Cl [CVL218],Infusion site pain,"50 mg BID, ALL",0 n (%)
same,WBC count increased,"50 mg BID, ALL",0 n (%)
same,ALT increased,"50 mg BID, ≥G3",0 n (%)
same,AST increased,"50 mg BID, ≥G3",0 n (%)
same,Abdominal distension,"50 mg BID, ≥G3",0 n (%)
same,Abdominal pain,"50 mg BID, ≥G3",0 n (%)
same,Abdominal pain upper,"50 mg BID, ≥G3",0 n (%)
same,Amylase increased,"50 mg BID, ≥G3",0 n (%)
same,Anemia,"50 mg BID, ≥G3",0 n (%)
same,Any AE related to study drug,"50 mg BID, ≥G3",0 n (%)
same,Asthenia,"50 mg BID, ≥G3",0 n (%)
same,Blood creatinine increased,"50 mg BID, ≥G3",0 n (%)
same,Blood system disorders,"50 mg BID, ≥G3",0 n (%)
same,Blood triglycerides increased,"50 mg BID, ≥G3",0 n (%)
same,Blood urea increased,"50 mg BID, ≥G3",0 n (%)
same,Cardiac disorders,"50 mg BID, ≥G3",0 n (%)
same,Chest discomfort,"50 mg BID, ≥G3",0 n (%)
same,Constipation,"50 mg BID, ≥G3",0 n (%)
same,Decreased appetite,"50 mg BID, ≥G3",0 n (%)
same,Diarrhea,"50 mg BID, ≥G3",0 n (%)
same,Dizziness,"50 mg BID, ≥G3",0 n (%)
same,Erectile dysfunction,"50 mg BID, ≥G3",0 n (%)
same,Gastrointestinal disorders,"50 mg BID, ≥G3",0 n (%)
same,General disorders,"50 mg BID, ≥G3",0 n (%)
same,Gingival bleeding,"50 mg BID, ≥G3",0 n (%)
same,Granulocyte count increased,"50 mg BID, ≥G3",0 n (%)
same,Headache,"50 mg BID, ≥G3",0 n (%)
same,Hypoalbuminemia,"50 mg BID, ≥G3",0 n (%)
same,Infusion site pain,"50 mg BID, ≥G3",0 n (%)
same,Laboratory test disorders,"50 mg BID, ≥G3",0 n (%)
same,Limb discomfort,"50 mg BID, ≥G3",0 n (%)
same,Lipase increased,"50 mg BID, ≥G3",0 n (%)
same,Metabolic disorders,"50 mg BID, ≥G3",0 n (%)
same,Musculoskeletal discomfort,"50 mg BID, ≥G3",0 n (%)
same,Musculoskeletal disorders,"50 mg BID, ≥G3",0 n (%)
same,Nausea,"50 mg BID, ≥G3",0 n (%)
same,Nervous system disorders,"50 mg BID, ≥G3",0 n (%)
same,Neutrophil count decreased,"50 mg BID, ≥G3",0 n (%)
same,Neutrophil count increased,"50 mg BID, ≥G3",0 n (%)
same,Palpitations,"50 mg BID, ≥G3",0 n (%)
same,Protein urine present,"50 mg BID, ≥G3",0 n (%)
same,Proteinuria,"50 mg BID, ≥G3",0 n (%)
same,Rash,"50 mg BID, ≥G3",0 n (%)
same,Renal & urinary disorders,"50 mg BID, ≥G3",0 n (%)
same,Renal failure,"50 mg BID, ≥G3",0 n (%)
same,Reproductive disorders,"50 mg BID, ≥G3",0 n (%)
same,Skin disorders,"50 mg BID, ≥G3",0 n (%)
same,Urinary occult blood positive,"50 mg BID, ≥G3",0 n (%)
same,Vomiting,"50 mg BID, ≥G3",0 n (%)
same,WBC count decreased,"50 mg BID, ≥G3",0 n (%)
same,WBC count increased,"50 mg BID, ≥G3",0 n (%)
same,Infusion site pain,"100 mg BID, ALL",0 n (%)
same,WBC count increased,"100 mg BID, ALL",0 n (%)
same,ALT increased,"100 mg BID, ≥G3",0 n (%)
same,AST increased,"100 mg BID, ≥G3",0 n (%)
same,Abdominal distension,"100 mg BID, ≥G3",0 n (%)
same,Abdominal pain,"100 mg BID, ≥G3",0 n (%)
same,Abdominal pain upper,"100 mg BID, ≥G3",0 n (%)
same,Amylase increased,"100 mg BID, ≥G3",0 n (%)
same,Anemia,"100 mg BID, ≥G3",0 n (%)
same,Any AE related to study drug,"100 mg BID, ≥G3",0 n (%)
same,Asthenia,"100 mg BID, ≥G3",0 n (%)
same,Blood creatinine increased,"100 mg BID, ≥G3",0 n (%)
same,Blood system disorders,"100 mg BID, ≥G3",0 n (%)
same,Blood triglycerides increased,"100 mg BID, ≥G3",0 n (%)
same,Blood urea increased,"100 mg BID, ≥G3",0 n (%)
same,Cardiac disorders,"100 mg BID, ≥G3",0 n (%)
same,Chest discomfort,"100 mg BID, ≥G3",0 n (%)
same,Constipation,"100 mg BID, ≥G3",0 n (%)
same,Decreased appetite,"100 mg BID, ≥G3",0 n (%)
same,Diarrhea,"100 mg BID, ≥G3",0 n (%)
same,Dizziness,"100 mg BID, ≥G3",0 n (%)
same,Erectile dysfunction,"100 mg BID, ≥G3",0 n (%)
same,Gastrointestinal disorders,"100 mg BID, ≥G3",0 n (%)
same,General disorders,"100 mg BID, ≥G3",0 n (%)
same,Gingival bleeding,"100 mg BID, ≥G3",0 n (%)
same,Granulocyte count increased,"100 mg BID, ≥G3",0 n (%)
same,Headache,"100 mg BID, ≥G3",0 n (%)
same,Hypoalbuminemia,"100 mg BID, ≥G3",0 n (%)
same,Infusion site pain,"100 mg BID, ≥G3",0 n (%)
same,Laboratory test disorders,"100 mg BID, ≥G3",0 n (%)
same,Limb discomfort,"100 mg BID, ≥G3",0 n (%)
same,Lipase increased,"100 mg BID, ≥G3",0 n (%)
same,Metabolic disorders,"100 mg BID, ≥G3",0 n (%)
same,Musculoskeletal discomfort,"100 mg BID, ≥G3",0 n (%)
same,Musculoskeletal disorders,"100 mg BID, ≥G3",0 n (%)
same,Nausea,"100 mg BID, ≥G3",0 n (%)
same,Nervous system disorders,"100 mg BID, ≥G3",0 n (%)
same,Neutrophil count decreased,"100 mg BID, ≥G3",0 n (%)
same,Neutrophil count increased,"100 mg BID, ≥G3",0 n (%)
same,Palpitations,"100 mg BID, ≥G3",0 n (%)
same,Protein urine present,"100 mg BID, ≥G3",0 n (%)
same,Proteinuria,"100 mg BID, ≥G3",0 n (%)
same,Rash,"100 mg BID, ≥G3",0 n (%)
same,Renal & urinary disorders,"100 mg BID, ≥G3",0 n (%)
same,Renal failure,"100 mg BID, ≥G3",0 n (%)
same,Reproductive disorders,"100 mg BID, ≥G3",0 n (%)
same,Skin disorders,"100 mg BID, ≥G3",0 n (%)
same,Urinary occult blood positive,"100 mg BID, ≥G3",0 n (%)
same,Vomiting,"100 mg BID, ≥G3",0 n (%)
same,WBC count decreased,"100 mg BID, ≥G3",0 n (%)
same,WBC count increased,"100 mg BID, ≥G3",0 n (%)
same,Infusion site pain,"200 mg BID, ALL",1 (100) n (%)
same,WBC count increased,"200 mg BID, ALL",0 n (%)
same,ALT increased,"200 mg BID, ≥G3",0 n (%)
same,AST increased,"200 mg BID, ≥G3",0 n (%)
same,Abdominal distension,"200 mg BID, ≥G3",0 n (%)
same,Abdominal pain,"200 mg BID, ≥G3",0 n (%)
same,Abdominal pain upper,"200 mg BID, ≥G3",0 n (%)
same,Amylase increased,"200 mg BID, ≥G3",0 n (%)
same,Anemia,"200 mg BID, ≥G3",0 n (%)
same,Any AE related to study drug,"200 mg BID, ≥G3",0 n (%)
same,Asthenia,"200 mg BID, ≥G3",0 n (%)
same,Blood creatinine increased,"200 mg BID, ≥G3",0 n (%)
same,Blood system disorders,"200 mg BID, ≥G3",0 n (%)
same,Blood triglycerides increased,"200 mg BID, ≥G3",0 n (%)
same,Blood urea increased,"200 mg BID, ≥G3",0 n (%)
same,Cardiac disorders,"200 mg BID, ≥G3",0 n (%)
same,Chest discomfort,"200 mg BID, ≥G3",0 n (%)
same,Constipation,"200 mg BID, ≥G3",0 n (%)
same,Decreased appetite,"200 mg BID, ≥G3",0 n (%)
same,Diarrhea,"200 mg BID, ≥G3",0 n (%)
same,Dizziness,"200 mg BID, ≥G3",0 n (%)
same,Erectile dysfunction,"200 mg BID, ≥G3",0 n (%)
same,Gastrointestinal disorders,"200 mg BID, ≥G3",0 n (%)
same,General disorders,"200 mg BID, ≥G3",0 n (%)
same,Gingival bleeding,"200 mg BID, ≥G3",0 n (%)
same,Granulocyte count increased,"200 mg BID, ≥G3",0 n (%)
